These are literature values, as cited in patent EP3409275B1, “COMPOSITION FOR PREVENTION AND/OR TREATMENT OF DISEASES ASSOCIATED TO HYPERALGESIA” (Neilos S.r.l., priority 2017, dated 2018).

Series [1] has as its target GPR55 orphan receptor (Homo sapiens, UniProt Q9Y2T6). The settings on record: activation of GPR55.
The conditions of series [2]: mice, curcumin 40 mg/kg, phenylbutazone at similar doses.
For series [3] the following is noted: 2 g of curcumin with 20 mg of piperine, healthy volunteers.

GPR55 orphan receptor, sequence (Q9Y2T6 whole entry): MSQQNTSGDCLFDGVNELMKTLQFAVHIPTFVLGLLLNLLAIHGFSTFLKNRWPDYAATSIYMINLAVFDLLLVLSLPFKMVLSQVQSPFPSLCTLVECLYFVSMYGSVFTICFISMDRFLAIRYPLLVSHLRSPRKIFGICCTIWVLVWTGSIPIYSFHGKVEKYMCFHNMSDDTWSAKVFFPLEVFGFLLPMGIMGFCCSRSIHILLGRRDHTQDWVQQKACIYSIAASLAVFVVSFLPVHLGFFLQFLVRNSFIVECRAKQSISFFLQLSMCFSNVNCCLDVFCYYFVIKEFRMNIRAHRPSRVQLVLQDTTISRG

For the molecule `CCCCCCCCCCCCCCCC(=O)NCCO` [PEA, N-(2-hydroxyethyl) hexadecanamide], the concentration for a half-maximal effect (EC50) in series [1] was 4 nM. The removal half-life result (in vivo) is recorded as “about 12 minutes”. Besides, where the note is “oral administration”, the “area under the curve of PEA plasmatic level (AUC1-8h)” value is 6525 ± 1372 ng PEA min ml-1 and the tmax is 15 min. Besides, for the setting “oral administration, Wistar rats”, the “maximum plasmatic concentration (Cmax)” value is reported as 420 ± 132 nm.
For the molecule `CCCCC1C(=O)N(c2ccccc2)N(c2ccccc2)C1=O` [phenylbutazone], the ulcerogenic index in series [2] is listed as 1.70.
In the case of `O=C(/C=C/C=C/c1ccc2c(c1)OCO2)N1CCCCC1` [piperine], in series [3], the “increase in oral bioavailability of curcumin” value was 20 times.

As usually defined, the EC50 is the concentration giving half of the maximal effect.
